According to patent US20060069132A1, “Azolecarboxamide herbicides” (priority 2004, published 2006):

Columns and labels:
velvetleaf = assay: Test B pre-/postemergence herbicide test; assay type: in vivo, Abutilon theophrasti; conditions: for Velvetleaf plant response rating: postemergence, scale 0 (no effect) to 100 (complete control)
In short: (§1)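 Response was scored visually 13 to 15 days after treatment against untreated greenhouse controls, 0 meaning no effect and 100 complete control. Formulations (solvent mixture plus surfactant) went onto soil after planting, onto foliage of 1- to 4-leaf plants, and onto 2-leaf plants in a flooded paddy set including rice and barnyardgrass.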

giant foxtail = assay: Test B pre-/postemergence herbicide test; assay type: in vivo, Setaria faberi; conditions: for Foxtail, Giant plant response rating: postemergence, scale 0 (no effect) to 100 (complete control)
In short: as §1

large crabgrass = assay: Test B pre-/postemergence herbicide test; assay type: in vivo, Digitaria sanguinalis; conditions: for Crabgrass, Large plant response rating: postemergence, scale 0 (no effect) to 100 (complete control)
In short: as §1

rice [1] = assay: Test B flooded paddy test; assay type: in vivo, Oryza sativa; conditions: 1000 g ai/ha, visual rating, scale 0 to 100 (0 no effect, 100 complete control), 13 to 15 days
In short: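 Postemergence plants were sprayed with formulated test chemicals at 2 to 18 cm height (1- to 4-leaf stage); paddy species were grown to the 2-leaf stage. After 13 to 15 days in a greenhouse, injury was rated visually against untreated controls on a 0–100 scale (0 = no effect, 100 = complete control).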

blackgrass = assay: Test B postemergence herbicide test; assay type: in vivo, Alopecurus myosuroides; conditions: postemergence, visual rating, scale 0 (no effect) to 100 (complete control)
In short: (§2)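 Visual ratings, 0 (no effect) to 100 (complete control), made versus controls after 13–15 d greenhouse. Paddy plants treated at 2-leaf stage; postemergence plants at 1- to 4-leaf stage, 2–18 cm tall.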

[2] = tested on: smallflower umbrella sedge; assay: Test C flooded paddy test; assay type: in vivo, Cyperus difformis
rice [3] = assay: Test B pre-/postemergence herbicide test; assay type: in vivo, Oryza sativa; conditions: 0 = no effect, 100 = complete control, preemergence
In short: as §1

barnyardgrass [4] = assay: Test C flooded paddy test; assay type: in vivo, Echinochloa crus-galli
In short: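 Injury scored visually against controls on a 0 (no effect) to 100 (complete control) scale, 12 to 14 days after treatment in greenhouse. Flooded paddy plants treated at 2-leaf stage; postemergence plants at 1- to 4-leaf stage, 2 to 18 cm tall.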

barnyardgrass [5] = assay: Test B flooded paddy test; assay type: in vivo, Echinochloa crus-galli; conditions: 1000 g ai/ha, visual rating, scale 0 to 100 (0 no effect, 100 complete control), 13 to 15 days
In short: as §2

wheat = assay: Test B postemergence herbicide test; assay type: in vivo, Triticum aestivum; parameters: key to Wheat plant response rating: 0 = no effect, 100 = complete control; conditions: postemergence, visual rating, scale 0 (no effect) to 100 (complete control)
In short: as §2

barnyardgrass [6] = assay: Test B pre-/postemergence herbicide test; assay type: in vivo, Echinochloa crus-galli; conditions: for Barnyardgrass plant response rating: postemergence, scale 0 (no effect) to 100 (complete control)
In short: (§3)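 Visual rating, 0 (no effect) to 100 (complete control), versus untreated controls after 13–15 d in greenhouse. Pre- and postemergence applications (postemergence plants 2–18 cm, 1–4 leaves); flooded paddy arm at 2-leaf stage. Compounds in non-phytotoxic solvent plus surfactant.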

morningglory = assay: Test B pre-/postemergence herbicide test; assay type: in vivo, Ipomoea coccinea; conditions: for Morningglory plant response rating: postemergence, scale 0 (no effect) to 100 (complete control)
In short: as §3

pigweed = assay: Test B pre-/postemergence herbicide test; assay type: in vivo, Amaranthus retroflexus; conditions: for Pigweed plant response rating: postemergence, scale 0 (no effect) to 100 (complete control)
In short: as §1

lambsquarters = assay: Test B pre-/postemergence herbicide test; assay type: in vivo, Chenopodium album; conditions: visual rating; for Lambsquarters plant response rating: postemergence, scale 0 (no effect) to 100 (complete control)
In short: as §1

ducksalad [7] = assay: Test B flooded paddy test; assay type: in vivo, Heteranthera limosa; conditions: 1000 g ai/ha, visual rating, scale 0 to 100 (0 no effect, 100 complete control), 13 to 15 days
In short: as §2

rice [8] = assay: Test C flooded paddy test; assay type: in vivo, Oryza sativa
In short: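 Postemergence sprays applied to plants 2 to 18 cm tall (1- to 4-leaf stage); paddy species grown to 2-leaf stage under flooding. After 12 to 14 days in greenhouse, visual rating versus untreated controls on 0–100 scale (0 no effect, 100 complete control).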

cocklebur = assay: Test B pre-/postemergence herbicide test; assay type: in vivo, Xanthium strumarium; conditions: for Cocklebur plant response rating: postemergence, scale 0 (no effect) to 100 (complete control)
In short: as §3

wild oat = assay: Test B postemergence herbicide test; assay type: in vivo, Avena fatua; conditions: postemergence, visual rating, scale 0 (no effect) to 100 (complete control)
In short: as §2

Surinam grass = assay: Test B pre-/postemergence herbicide test; assay type: in vivo, Urochloa decumbens; conditions: for Surinam Grass plant response rating: postemergence, scale 0 (no effect) to 100 (complete control)
In short: as §1

corn = assay: Test B pre-/postemergence herbicide test; assay type: in vivo, Zea mays; conditions: for Corn plant response rating: postemergence, scale 0 (no effect) to 100 (complete control)
In short: as §1

[9] = tested on: small flower umbrella sedge; assay: Test B flooded paddy test; assay type: in vivo, Cyperus difformis; conditions: 1000 g ai/ha, visual rating, scale 0 to 100 (0 no effect, 100 complete control), 13 to 15 days
In short: as §2

ducksalad [10] = assay: Test C flooded paddy test; assay type: in vivo, Heteranthera limosa
[11] = 125 g ai/ha, 0 = no effect, 100 = complete control, preemergence
[12] = 500 g ai/ha, visual rating, 0 = no effect, 100 = complete control, preemergence
[13] = 62 g ai/ha, scale 0 to 100 (0 no effect, 100 complete control)
[14] = 125 g ai/ha, scale 0 to 100 (0 no effect, 100 complete control)
[15] = 250 g ai/ha, scale of 0 to 100, 0 is no effect, 100 is complete control
[16] = 500 g ai/ha, visual rating after 12 to 14 days, scale 0 to 100 (0 no effect, 100 complete control)

CCNC(=O)c1ccc(F)c(NC(=O)c2sc(C(C)(C)C)nc2CC)c1 [Compound 226]
80: Rice plant response rating (rice [1]) | Barnyardgrass plant response rating (barnyardgrass [5]) | Morningglory plant response rating (morningglory; 500 g ai/ha, visual rating) | Sedge, Umbrella plant response rating [9]
45: Rice plant response rating (rice [8]; [15])
100: Plant response rating, Crabgrass, Large (large crabgrass; [12])
10: Velvetleaf plant response rating (0 to 100 scale) (velvetleaf; [11]) | Sedge, Umbrella plant response rating [2, 13] | Sedge, Umbrella plant response rating [2, 14] | Barnyardgrass plant response rating (0 to 100 scale) (barnyardgrass [6]; [11]) | Barnyardgrass plant response rating (barnyardgrass [6]; 125 g ai/ha, visual rating) | Plant response rating, Morningglory (morningglory; [12]) | Cocklebur plant response rating (cocklebur; 125 g ai/ha, visual rating) | Surinam Grass plant response rating (0 to 100 scale) (Surinam grass; [11]) | Surinam Grass plant response rating (Surinam grass; 125 g ai/ha, visual rating) | Corn plant response rating (corn; 125 g ai/ha, visual rating)
90: Plant response rating, Lambsquarters (lambsquarters; 500 g ai/ha, 0 = no effect, 100 = complete control, preemergence)
20: Velvetleaf plant response rating (velvetleaf; 125 g ai/ha, visual rating) | Velvetleaf plant response rating (velvetleaf; 500 g ai/ha, visual rating) | Foxtail, Giant plant response rating (0 to 100 scale) (giant foxtail; [11]) | Foxtail, Giant plant response rating (giant foxtail; 125 g ai/ha, visual rating) | Foxtail, Giant plant response rating (giant foxtail; 500 g ai/ha, visual rating) | Crabgrass, Large plant response rating (0 to 100 scale) (large crabgrass; [11]) | Crabgrass, Large plant response rating (large crabgrass; 125 g ai/ha, visual rating) | Crabgrass, Large plant response rating (large crabgrass; 500 g ai/ha, visual rating) | Blackgrass plant response rating (blackgrass; 125 g ai/ha) | Blackgrass plant response rating (blackgrass; 500 g ai/ha) | Rice plant response rating (0 to 100 scale) (rice [3]; 125 g ai/ha) | Wheat plant response rating (wheat; 125 g ai/ha) | Barnyardgrass plant response rating (barnyardgrass [6]; 500 g ai/ha, visual rating) | Cocklebur plant response rating (cocklebur; 500 g ai/ha, visual rating) | Surinam Grass plant response rating (Surinam grass; 500 g ai/ha, visual rating) | Plant response rating, Corn (corn; [12])
70: Plant response rating, Foxtail, Giant (giant foxtail; [12]) | Plant response rating, Sedge, Umbrella [2, 16] | Plant response rating, Pigweed (pigweed; [12]) | Ducksalad plant response rating (ducksalad [7]) | Plant response rating, Rice (rice [8]; [16])
0: Barnyardgrass plant response rating (barnyardgrass [4]; [13]) | Barnyardgrass plant response rating (barnyardgrass [4]; [14]) | Morningglory plant response rating (0 to 100 scale) (morningglory; [11]) | Rice plant response rating (rice [8]; [13]) | Cocklebur plant response rating (0 to 100 scale) (cocklebur; [11]) | Plant response rating, Cocklebur (cocklebur; [12]) | Corn plant response rating (0 to 100 scale) (corn; [11]) | Ducksalad plant response rating (ducksalad [10]; [13]) | Ducksalad plant response rating (ducksalad [10]; [14])
65: Plant response rating, Ducksalad (ducksalad [10]; [16])
25: Rice plant response rating (rice [8]; [14])
40: Sedge, Umbrella plant response rating [2, 15] | Pigweed plant response rating (0 to 100 scale) (pigweed; [11]) | Lambsquarters plant response rating (lambsquarters; 125 g ai/ha) | Plant response rating, Surinam Grass (Surinam grass; [12]) | Corn plant response rating (corn; 500 g ai/ha, visual rating) | Ducksalad plant response rating (ducksalad [10]; [15])
50: Plant response rating, Velvetleaf (velvetleaf; [12]) | Barnyardgrass plant response rating (barnyardgrass [4]; [15])
30: Plant response rating, Rice (rice [3]; 500 g ai/ha, visual rating) | Wheat plant response rating (wheat; 500 g ai/ha) | Morningglory plant response rating (morningglory; 125 g ai/ha, visual rating) | Pigweed plant response rating (pigweed; 125 g ai/ha, visual rating) | Oat, Wild plant response rating (wild oat; 125 g ai/ha) | Oat, Wild plant response rating (wild oat; 500 g ai/ha)
60: Plant response rating, Barnyardgrass (barnyardgrass [4]; [16]) | Plant response rating, Barnyardgrass (barnyardgrass [6]; [12]) | Pigweed plant response rating (pigweed; 500 g ai/ha, visual rating) | Lambsquarters plant response rating (lambsquarters; 500 g ai/ha)
